Here are results for ten molecules from patent US11046680B1, “Heteroaryl-substituted triazoles as APJ receptor agonists” (priority 2016, dated 2021).

Each structure is given as a SMILES string. Bounds are passed on as bounds.

Chain of human APJ receptor (P35414 whole entry): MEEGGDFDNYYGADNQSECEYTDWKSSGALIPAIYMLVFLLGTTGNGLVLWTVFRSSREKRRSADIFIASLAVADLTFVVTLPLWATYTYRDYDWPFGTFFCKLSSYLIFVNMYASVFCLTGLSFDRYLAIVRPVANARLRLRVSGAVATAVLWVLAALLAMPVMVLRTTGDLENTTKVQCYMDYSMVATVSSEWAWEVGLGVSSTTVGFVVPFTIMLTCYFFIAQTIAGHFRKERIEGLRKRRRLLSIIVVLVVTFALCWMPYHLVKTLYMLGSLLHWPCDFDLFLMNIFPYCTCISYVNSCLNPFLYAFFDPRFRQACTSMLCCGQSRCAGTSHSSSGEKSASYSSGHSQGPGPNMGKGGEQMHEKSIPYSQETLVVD

The assay concerns the target human APJ receptor (Homo sapiens (Human), UniProt P35414). The experiment in a line: biochemical. Conditions: [35S]GTPγS binding, CHO membranes expressing human APJ receptor; read-out: Activity hAPJ SPA EC50 IP. It is filed as biochemical. As to the method: The human APJ receptor was cloned by polymerase chain reaction and the gene encoding the receptor was subcloned in pFLAG-CMV™-3 expression vector (Sigma, Saint Louis, Mo. USA) in-house at Amgen. A GTPγS binding assay was performed on membranes prepared from CHO cells stably expressing human APJ receptor. The optimum experimental conditions for the concentrations of GDP, MgCl2, and NaCl in the assay buffer were initially determined. […] Incubation was at RT for 90 min and the microplate was read using a ViewLux™ ultra HTS Microplate Imager (PerkinElmer, Inc.).
For orientation: Binding of GTPγS marks nucleotide exchange on a G protein.
`COc1cnc([C@H](C)[C@@H](C)S(=O)(=O)Nc2nnc(-c3ccn(C)n3)n2-c2c(OC)cccc2OC)cn1` [Example 301.0, (2R,3S)-N-(4-(2,6-dimethoxyphenyl)-5-(1-methyl-1H-pyrazol-3-yl)-4H-1,2,4-triazol-3-yl)-3-(5-methoxy-2-pyrazinyl)-2-butanesulfonamide]: the EC50 worked out at 11 nM.

Take `COc1cccc(OC)c1-n1c(NS(=O)(=O)[C@@H](C)[C@H](C)c2ncc(F)cn2)nnc1-c1cncc(C)n1` [Example 209.0, (2S,3R)-N-(4-(2,6-dimethoxyphenyl)-5-(6-methyl-2-pyrazinyl)-4H-1,2,4-triazol-3-yl)-3-(5-fluoro-2-pyrimidinyl)-2-butanesulfonamide]: the 50% effective concentration (EC50) was 1.5 nM.

Consider `COc1ncnc(OC)c1-n1c(NS(=O)(=O)[C@@H](C)[C@H](OC)c2ncc(Cl)cn2)nnc1-c1ccn(C)n1` [Example 450.0, (1R,2S)-1-(5-chloro-2-pyrimidinyl)-N-(4-(4,6-dimethoxy-5-pyrimidinyl)-5-(1-methyl-1H-pyrazol-3-yl)-4H-1,2,4-triazol-3-yl)-1-methoxy-2-propanesulfonamide], for which the EC50 came to 0.81 nM.

As to `COc1cccc(OC)c1-n1c(NS(=O)(=O)C[C@H](OC)c2ccc(Cl)cn2)nnc1-c1ccn(C)n1` (single isomer, unassigned) [Example 376.0, (R)-2-(5-Chloropyridin-2-yl)-N-(4-(2,6-dimethoxyphenyl)-5-(1-methyl-1H-pyrazol-3-yl)-4H-1,2,4-triazol-3-yl)-2-methoxyethanesulfonamide or (S)-2-(5-chloropyridin-2-yl)-N-(4-(2,6-dimethoxyphenyl)-5-(1-methyl-1H-pyrazol-3-yl)-4H-1,2,4-triazol-3-yl)-2-methoxyethanesulfonamide], the EC50 is 1.7 nM.

On to `COc1cccc(OC)c1-n1c(NS(=O)(=O)[C@@H](C)[C@H](OC)c2ncc(C)cn2)nnc1-c1ncc(C)s1` [Example 331.0, (1R,2S)-N-(4-(2,6-Dimethoxyphenyl)-5-(5-methyl-1,3-thiazol-2-yl)-4H-1,2,4-triazol-3-yl)-1-methoxy-1-(5-methyl-2-pyrimidinyl)-2-propanesulfonamide], for which the EC50 is 0.98 nM.

On to `COc1cccc(OC)c1-n1c(NS(=O)(=O)[C@@H](C)[C@H](OC)c2cnc(C)cn2)nnc1-c1ccn(C(F)F)n1` [Example 223.0, (1R,2S)-N-(5-(1-(difluoromethyl)-1H-pyrazol-3-yl)-4-(2,6-dimethoxyphenyl)-4H-1,2,4-triazol-3-yl)-1-methoxy-1-(5-methyl-2-pyrazinyl)-2-propanesulfonamide], for which the EC50 came to 2.9 nM.

`COc1ccccc1-n1c(NS(=O)(=O)Cc2ccc(Cl)cc2)nnc1-c1ccc(F)s1` [Example 235.0, 1-(4-chlorophenyl)-N-(5-(5-fluoro-2-thiophenyl)-4-(2-methoxyphenyl)-4H-1,2,4-triazol-3-yl)methanesulfonamide]: the EC50 was above 12500 nM.

For the molecule `COc1ccccc1-n1c(NS(=O)(=O)Cc2ccc(Cl)cc2)nnc1-c1cccs1` [Example 234.0, 1-(4-chlorophenyl)-N-(4-(2-methoxyphenyl)-5-(2-thiophenyl)-4H-1,2,4-triazol-3-yl)methanesulfonamide], the EC50 came to 340 nM.

Turning to `COc1cccc(OC)c1-n1c(NS(=O)(=O)[C@@H](C)[C@H](OC)c2ncc(Cl)cn2)nnc1-c1c[nH]c2ncccc12` [Example 419.0, (1R,2S)-1-(5-chloropyrimidin-2-yl)-N-(4-(2,6-dimethoxyphenyl)-5-(1H-pyrrolo[2,3-b]pyridin-3-yl)-4H-1,2,4-triazol-3-yl)-1-methoxypropane-2-sulfonamide], the EC50 worked out at 2.4 nM.

For the molecule `CCn1ccc(-c2nnc(NS(=O)(=O)[C@@H](C)[C@H](OC)c3ncc(F)cn3)n2-c2c(OC)cccc2OC)n1` [Example 134.0, (1R,2S)-N-(4-(2,6-Dimethoxyphenyl)-5-(1-ethyl-1H-pyrazol-3-yl)-4H-1,2,4-triazol-3-yl)-1-(5-fluoro-2-pyrimidinyl)-1-methoxy-2-propanesulfonamide], the EC50 stood at 1.2 nM.

One may read the EC50 as the concentration giving half of the maximal effect.
